In patent US6706733B2, “Quinolinone derivative formulation and its production method” (Dainippon Ink and Chemicals, Inc., priority 1999, dated 2004):

Tests used:
[1] = Absorption test in rats (plasma concentration after oral administration); format: in vivo, male SD rats; details: for Cmax (maximum plasma concentration): 100 mg/kg single oral administration by gastric tube, suspended in 0.5% aqueous methyl cellulose, plasma by HPLC; for Cmax (maximum plasma concentration) / AUC (area under the plasma concentration vs. time curve): fasted male SD rats; for AUC (area under the plasma concentration vs. time curve): 100 mg/kg single oral administration, trapezoidal equation plus elimination rate constant; for absorption as compared with the α-form crystals: rats, oral 100 mg/kg, regardless of whether crushed or not
Protocol: A comparison of absorption into bodies of rats was conducted for each of the crystal forms and their crushed products of the quinolinone derivative represented with chemical formula (I). Furthermore, each of the crystal forms of the quinolinone derivative represented with chemical formula (I) were crushed using an automated agate mortar.
The following provides an explanation of the test method.
100 mg/kg of each sample were administered orally in a single administration using a gastric tube to 3 male SD rats (age 6 weeks) fasted for 16 hours. The samples were administered after suspending in 0.5% aqueous methyl cellulose solution and preparing to a concentration of […]. Following administration, blood samples were collected over time from the tail vein using heparin-treated glass tubes, and the quinolinone derivative concentrations of the resulting plasma were assayed by HPLC.
The maximum Plasma concentration (Cmax) and area under the plasma concentration vs. time curve (AUC) were determined from the assayed values of the quinolinone derivative at each blood sampling time.
Furthermore, Cmax was determined using measured values, while AUC was determined by calculating according to a trapezoidal equation until the time of measurement, and using the elimination rate constant after that time. The Cmax and AUC of each crystal form of the quinolinone derivative represented with chemical formula (I) are described as comparative examples.

[2] = Photostability test (6 months under direct sunlight, HPLC content); format: physicochemical; details: room temperature; for stability with respect to light compared among crystal forms: 6 months direct sunlight; for Residual rate of quinolinone derivative: transparent sealed container, nitrogen, direct sunlight
Protocol: 0.5 g of each of the crystal forms of the quinolinone derivative represented with chemical formula (I) were filled into a transparent and sealed container in a nitrogen atmosphere, and were stored for 6 months under direct sunlight at room temperature.
The content of each crystal form of the quinolinone derivative represented with chemical formula (I) was assayed over time by HPLC followed by a comparison of stability.

[3] = storage period 0 days (100% prior to storage)

SMILES	Cmax (maximum plasma concentration) [1]	AUC (area under the plasma concentration vs. time curve) [1]	stability with respect to light compared among crystal forms [2]	Residual rate of quinolinone derivative [2, 3]	Residual rate of quinolinone derivative ([2]; storage period 1 month)	Residual rate of quinolinone derivative ([2]; storage period 6 months)	Residual rate of quinolinone derivative ([2]; storage period 15 days)	absorption as compared with the α-form crystals [1]
CCCCCCCCOc1c(O)c2ccc(NC(=O)/C=C/c3cc(OC)c(O)c(OC)c3)cc2n(C)c1=O [Crushed α-form crystals]	33000 ng/mL	253 µg·h/mL						
CCCCCCCCOc1c(O)c2ccc(NC(=O)/C=C/c3cc(OC)c(O)c(OC)c3)cc2n(C)c1=O [Crushed β-form crystals]	67000 ng/mL	586 µg·h/mL						
CCCCCCCCOc1c(O)c2ccc(NC(=O)/C=C/c3cc(OC)c(O)c(OC)c3)cc2n(C)c1=O [Crushed γ-form crystals]	65000 ng/mL	575 µg·h/mL						
CCCCCCCCOc1c(O)c2ccc(NC(=O)/C=C/c3cc(OC)c(O)c(OC)c3)cc2n(C)c1=O [Crushed δ-form crystals]	63000 ng/mL	597 µg·h/mL						
CCCCCCCCOc1c(O)c2ccc(NC(=O)/C=C/c3cc(OC)c(O)c(OC)c3)cc2n(C)c1=O [α-form crystals]	10000 ng/mL	73 µg·h/mL	relatively stable	100%	97.2%	85.1%	99.1%	

Results, then the compound that gave them:

Cmax (maximum plasma concentration) [1]	AUC (area under the plasma concentration vs. time curve) [1]	stability with respect to light compared among crystal forms [2]	Residual rate of quinolinone derivative [2, 3]	Residual rate of quinolinone derivative ([2]; storage period 1 month)	Residual rate of quinolinone derivative ([2]; storage period 6 months)	Residual rate of quinolinone derivative ([2]; storage period 15 days)	absorption as compared with the α-form crystals [1]	SMILES
41000 ng/mL	375 µg·h/mL	relatively stable	100%	96.8%	84.5%	98.7%	superior absorption	CCCCCCCCOc1c(O)c2ccc(NC(=O)/C=C/c3cc(OC)c(O)c(OC)c3)cc2n(C)c1=O [β-form crystals]
38000 ng/mL	325 µg·h/mL	relatively stable	100%	96.5%	84.1%	98.9%	superior absorption	CCCCCCCCOc1c(O)c2ccc(NC(=O)/C=C/c3cc(OC)c(O)c(OC)c3)cc2n(C)c1=O [γ-form crystals]
51000 ng/mL	512 µg·h/mL	extremely unstable	100%	91.4%	57.3%	96.2%	superior absorption	CCCCCCCCOc1c(O)c2ccc(NC(=O)/C=C/c3cc(OC)c(O)c(OC)c3)cc2n(C)c1=O [δ-form crystals]
